Legend:
Assay in all cases: relative viability (nuclei count vs DMSO), 5 days (fraction); higher = more cells survive
[1] = compound: C1=CC=C(C(=C1)C2=CC=C(C=C2)C3=CSC4=C3C(=C(C(=O)N4)C#N)O)O + C[C@]1(O)C[C@@H](c2nc(-c3ccc4ccc(-c5ccccc5)nc4c3)c3c(N)nccn32)C1 [Linsitinib] (partner 1 µM)
Method in brief: (§1)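 Five library-drug doses in √10 steps were combined with a fixed anchor-drug dose, or a single drug was given alone, by pin tool to lung cancer cell lines in 1536-well plates the day after seeding. Nuclei were stained and counted after 5 days. Relative viability is the nuclei count in treated wells over that in vehicle wells, taken as the median of duplicate plates.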

TGX 221 + Foretinib = compound: CC1=CN2C(=O)C=C(N=C2C(=C1)C(C)NC3=CC=CC=C3)N4CCOCC4 [TGX 221] + COc1cc2c(Oc3ccc(NC(=O)C4(C(=O)Nc5ccc(F)cc5)CC4)cc3F)ccnc2cc1OCCCN1CCOCC1 [Foretinib] (partner 0.25 µM)
Method in brief: as §1

TGX 221 + Decitabine = compound: CC1=CN2C(=O)C=C(N=C2C(=C1)C(C)NC3=CC=CC=C3)N4CCOCC4 [TGX 221] + Nc1ncn([C@H]2C[C@H](O)[C@@H](CO)O2)c(=O)n1 [Decitabine] (partner 2 µM)
Method in brief: as §1

Ricolinostat + Alpelisib = compound: O=C(CCCCCCNC(=O)c1cnc(N(c2ccccc2)c2ccccc2)nc1)NO [Ricolinostat] + Cc1nc(NC(=O)N2CCC[C@H]2C(N)=O)sc1-c1ccnc(C(C)(C)C(F)(F)F)c1 [Alpelisib] (partner 2 µM)
Method in brief: as §1

| Cell Line | relative viability ([1]; first compound 0.08 µM) | relative viability ([1]; first compound 0.253 µM) | relative viability ([1]; first compound 0.8 µM) | relative viability ([1]; first compound 2.53 µM) | relative viability ([1]; first compound 8 µM) | relative viability (TGX 221 + Foretinib; first compound 0.08 µM) | relative viability (TGX 221 + Foretinib; first compound 0.253 µM) | relative viability (TGX 221 + Foretinib; first compound 0.8 µM) | relative viability (TGX 221 + Foretinib; first compound 2.53 µM) | relative viability (TGX 221 + Foretinib; first compound 8 µM) | relative viability (TGX 221 + Decitabine; first compound 0.08 µM) | relative viability (TGX 221 + Decitabine; first compound 0.253 µM) | relative viability (TGX 221 + Decitabine; first compound 0.8 µM) | relative viability (TGX 221 + Decitabine; first compound 2.53 µM) | relative viability (TGX 221 + Decitabine; first compound 8 µM) | relative viability (Ricolinostat + Alpelisib; first compound 0.08 µM) | relative viability (Ricolinostat + Alpelisib; first compound 0.253 µM) | relative viability (Ricolinostat + Alpelisib; first compound 0.8 µM) | relative viability (Ricolinostat + Alpelisib; first compound 2.53 µM) |
| --- | --- | --- | --- | --- | --- | --- | --- | --- | --- | --- | --- | --- | --- | --- | --- | --- | --- | --- | --- |
| HCC-366 | 0.819 | 0.786 | 0.795 | 0.657 | 0.451 | 0.844 | 0.892 | 0.96 | 0.902 | 0.813 | 0.333 | 0.305 | 0.345 | 0.344 | 0.365 | 0.223 | 0.407 | 0.398 | 0.433 |
| HCC-827 | 1.02 | 1.04 | 0.995 | 0.993 | 0.955 | 1.08 | 1.08 | 1.07 | 0.927 | 0.904 | 0.292 | 0.359 | 0.281 | 0.305 | 0.327 | 0.615 | 0.938 | 0.935 | 0.985 |
| HOP-62 | 1.19 | 1.15 | 0.97 | 1.05 | 0.736 | 1.09 | 1.1 | 1.05 | 1.15 | 1.08 | 0.213 | 0.185 | 0.207 | 0.246 | 0.268 | 0.932 | 0.901 | 0.844 | 0.848 |
| IA-LM | 0.479 | 1.9 | 0.198 | 0.855 | 0.376 | 1.18 | 1.04 | 1.08 | 1.22 | 1.11 | – | – | – | – | – | 0.616 | 0.819 | 0.623 | 0.363 |
| LC-2-ad | 0.894 | 0.889 | 0.805 | 0.876 | 0.751 | 0.865 | 0.85 | 0.95 | 0.825 | 0.751 | 0.765 | 0.793 | 0.822 | 0.826 | 0.742 | 0.786 | 0.853 | 0.839 | 0.663 |
| LCLC-97TM1 | 0.197 | 0.203 | 0.222 | 0.198 | 0.164 | 0.949 | 1.01 | 0.904 | 0.959 | 0.802 | 0.206 | 0.22 | 0.233 | 0.228 | 0.225 | 0.177 | 0.288 | 0.188 | 0.306 |
| LCLC-103H | 1.11 | 1.22 | 0.984 | 1.08 | 0.869 | 0.698 | 0.761 | 0.883 | 0.724 | 0.619 | 0.777 | 0.704 | 0.677 | 0.725 | 0.754 | 0.814 | 0.971 | 0.883 | 0.959 |
| LK-2 | 0.34 | 0.553 | 0.479 | 0.717 | 0.344 | 1.2 | 1.2 | 1.53 | 1.17 | 0.998 | 0.341 | 0.308 | 0.25 | 0.296 | 0.307 | – | 0.995 | 1.07 | 1.62 |
| LOU-NH91 | 0.903 | 1.06 | 0.878 | 0.911 | 0.89 | 0.766 | 0.922 | 0.945 | 0.907 | 0.781 | 0.821 | 0.763 | 0.785 | 0.802 | 0.788 | – | 0.735 | 0.709 | 0.699 |
| LU99A | 0.556 | 0.582 | 0.614 | 0.645 | 0.468 | 0.68 | 0.902 | 0.755 | 0.917 | 0.953 | 0.861 | 0.842 | 0.852 | 0.937 | 0.997 | 0.438 | 0.512 | 0.362 | 0.437 |
| LXF-289 | 0.978 | 0.961 | 0.986 | 1 | 0.973 | 0.974 | 0.986 | 1 | 0.97 | 0.995 | 0.37 | 0.371 | 0.369 | 0.348 | 0.375 | 0.961 | 1 | 1.06 | 1.01 |
| NCI-H522 | – | – | – | – | – | – | – | – | – | – | 0.717 | 0.624 | 0.696 | 0.587 | 0.64 | – | – | – | – |
| NCI-H1299 | 0.848 | 1 | 0.852 | 1.01 | 0.912 | 1.12 | 1.06 | 1.1 | 1.13 | 1.07 | – | – | – | – | – | 1.06 | 0.99 | 0.988 | 0.944 |
| NCI-H1563 | 1.16 | 1.06 | 1.11 | 1.23 | 1.31 | 0.855 | 0.875 | 0.936 | 0.836 | 0.68 | – | – | – | – | – | 0.916 | 0.994 | 0.862 | 0.857 |
| NCI-H1623 | – | – | – | – | – | 0.815 | 0.858 | 0.827 | 0.826 | 0.77 | – | – | – | – | – | – | – | – | – |
| NCI-H1648 | – | – | – | – | – | – | – | – | – | – | – | 0.554 | 0.499 | 0.474 | 0.523 | – | – | – | – |
| NCI-H1650 | – | – | – | – | – | 0.953 | 0.751 | 1.05 | 0.922 | 0.639 | 0.433 | 0.376 | 0.386 | 0.486 | 0.43 | – | – | – | – |
| NCI-H1703 | 0.803 | 0.446 | 0.589 | 0.507 | 0.76 | 0.328 | 0.275 | 0.335 | 0.317 | 0.337 | – | – | – | – | – | – | 0.316 | 0.401 | 0.377 |
| NCI-H2170 | – | – | – | – | – | 0.995 | 1.1 | 0.991 | 0.945 | 0.978 | 0.403 | 0.464 | 0.441 | 0.438 | 0.495 | 0.687 | 0.764 | 0.862 | 0.934 |
| NCI-H2228 | 0.623 | 0.627 | 0.686 | 0.648 | 0.666 | 0.738 | 0.853 | 0.787 | 0.754 | 0.72 | – | – | – | – | – | 0.555 | 0.984 | 0.722 | 0.791 |
| NCI-H2342 | – | – | – | – | – | 1.03 | 1.02 | 1.03 | 0.903 | 0.985 | 0.693 | 0.638 | 0.725 | 0.68 | 0.773 | – | – | – | – |
| SW 900 | – | – | – | – | – | 0.682 | 0.651 | 0.788 | 0.546 | 0.726 | – | 0.406 | 0.466 | 0.42 | 0.351 | – | – | – | – |

Reference: the supplement of paper PMC10307832
